Measurements taken from ChEMBL document CHEMBL1201862, “PubChem BioAssay data set” (2004).
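Dose response: 5 concentrations. Exposure: 48 h. Format: 96-well plates. Endpoint: linear interpolation; highest concentration if not reached. GI50 = concentration required for 50% inhibition of growth.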 Active and inactive are the calls of the source. Rule as the data show it: active = GI50 up to about 1.1 µM and inactive = higher.

Experiments:
Assay in all cases: NCI tumour cell line growth inhibition, 48 h
[1] = system: MDA-N
[2] = system: SK-MEL-28
[3] = system: OVCAR-3
[4] = system: OVCAR-4
[5] = system: IGROV-1
[6] = system: KM12
[7] = system: M14
[8] = system: U-251
[9] = system: NCI-H522
[10] = system: ACHN
[11] = system: MCF7
[12] = system: OVCAR-8
[13] = system: UACC-62
[14] = system: MOLT-4
[15] = system: NCI-H226
[16] = system: RPMI-8226
[17] = system: UO-31
[18] = system: SW-620
[19] = system: A549
[20] = system: HCC 2998

Measured: GI50

Cc1cn(C2CC(O)C(COC(N)=O)O2)c(=O)[nH]c1=O (configuration not stated)
inactive: [1] > 100 µM | [2] > 100 µM | [3] > 100 µM | [4] > 100 µM | [5] > 100 µM | [6] > 100 µM | [7] > 100 µM | [8] > 100 µM | [9] > 100 µM | [10] > 100 µM | [11] > 100 µM | [12] > 100 µM | [13] > 100 µM | [14] > 100 µM | [15] > 100 µM | [16] > 100 µM | [17] > 100 µM | [18] > 100 µM | [19] > 100 µM

CC1(C)OC2COC(c3n[nH]c4c(=O)[nH]c(=O)[nH]c34)C2O1 (configuration not stated)
inactive: [1] > 100 µM | [2] > 100 µM | [3] > 100 µM | [4] > 100 µM | [5] > 100 µM | [6] > 100 µM | [7] > 100 µM | [8] > 100 µM | [9] > 100 µM | [10] > 100 µM | [11] > 100 µM | [12] > 100 µM | [13] > 100 µM | [14] > 100 µM | [15] > 100 µM | [16] > 100 µM | [17] > 100 µM | [18] > 100 µM | [19] > 100 µM

COc1cc(Cn2c3c(c4c(CN(C)C)c(O)ccc42)C(=O)c2ccccc2C3=O)cc(OC)c1
inactive: [1] 15.7 µM | [2] 15.8 µM | [3] 24.2 µM | [4] 13.9 µM | [6] 26.4 µM | [7] 17.2 µM | [8] 14.8 µM | [10] 15.3 µM | [11] 15.9 µM | [12] 14.6 µM | [13] 23.1 µM | [14] 24.4 µM | [15] 33.2 µM | [16] 18.5 µM | [17] 14.6 µM | [20] 17.9 µM | [18] 18.7 µM | [19] 15.1 µM

CC(C)(C)C(=O)CC1=Nc2ccccc2SC1(O)CC(=O)C(C)(C)C (configuration not stated)
inactive: [1] 32.7 µM | [2] 22.8 µM | [3] 17 µM | [5] 16 µM | [6] 20.1 µM | [7] 29.8 µM | [8] 22.2 µM | [9] 13 µM | [10] 23.2 µM | [11] 25 µM | [12] 21.9 µM | [13] 11.8 µM | [14] 3.48 µM | [15] 15.2 µM | [16] 8.67 µM | [17] 12.3 µM | [20] 14.8 µM | [18] 25.5 µM | [19] 20.5 µM

O=C1CSC(/C=C/c2ccccc2)N1c1ccc(-c2ccc(-n3c(-c4ccccc4)nc4ccccc4c3=O)cc2)cc1 (configuration not stated)
inactive: [1] 23.4 µM | [2] 18.8 µM | [3] 21.2 µM | [4] 15.8 µM | [5] 20.1 µM | [6] 17.3 µM | [7] 16.9 µM | [8] 21.5 µM | [9] 17.8 µM | [10] 23.6 µM | [11] 22.6 µM | [12] 25.1 µM | [13] 24.3 µM | [14] 15.7 µM | [16] 27.9 µM | [17] 14.2 µM | [20] 66.2 µM | [18] 19.4 µM | [19] 24 µM

COc1ccc(CNc2nc3cc(C(F)(F)F)ccc3nc2C(=O)O)cc1OC
inactive: [1] 36.5 µM | [2] 67 µM | [3] 22.3 µM | [4] 48.2 µM | [5] 12.2 µM | [6] 32.1 µM | [7] 32 µM | [8] 24.3 µM | [10] 26.1 µM | [11] 23.2 µM | [12] 42.6 µM | [13] 20.5 µM | [14] 22.8 µM | [15] 64.1 µM | [16] 28.1 µM | [17] 28.3 µM | [20] 36 µM | [18] 43.5 µM | [19] 35.6 µM

N=c1oc2ccccc2cc1-c1nc2ccccc2[nH]1
inactive: [1] 17.3 µM | [2] 89.9 µM | [4] > 100 µM | [5] 18.9 µM | [6] 30.8 µM | [7] 70.8 µM | [8] 61.7 µM | [9] 1.89 µM | [10] 16.9 µM | [11] 19.9 µM | [12] 71.6 µM | [13] 41.4 µM | [14] 10.1 µM | [15] > 100 µM | [16] 26.3 µM | [17] 12.1 µM | [20] 71.3 µM | [18] 36.6 µM | [19] 74.1 µM
